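Assay format: 96-well plates, 48-hour exposure. The concentration for 50% growth inhibition is given as GI50.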 Calls of active or inactive are those of the source. Cut-off read from the data, not from the text of the source: active = GI50 up to about 1.1 µM and inactive = higher.
What was measured:
Assay in all cases: NCI tumour cell line growth inhibition, 48 h
NCI-H522 = test system: NCI-H522
NCI-H23 = test system: NCI-H23
HCT-15 = test system: HCT-15
SF-295 = test system: SF-295
RXF 393 = test system: RXF 393
BT-549 = test system: BT-549
A549 = test system: A549
SR = test system: SR
MDA-N = test system: MDA-N
CAKI-1 = test system: CAKI-1
SK-MEL-5 = test system: SK-MEL-5
NCI-H460 = test system: NCI-H460
M14 = test system: M14
HCC 2998 = test system: HCC 2998
MDA-MB-435 = test system: MDA-MB-435
DU-145 = test system: DU-145
PC-3 = test system: PC-3
Malme-3M = test system: Malme-3M
786-0 = test system: 786-0
SW-620 = test system: SW-620

SMILES	GI50 (NCI-H522)	GI50 (NCI-H23)	GI50 (HCT-15) [µM]	GI50 (SF-295)	GI50 (RXF 393)	GI50 (BT-549)	GI50 (A549)	GI50 (SR)	GI50 (MDA-N)	GI50 (CAKI-1)	GI50 (SK-MEL-5)	GI50 (NCI-H460)	GI50 (M14)	GI50 (HCC 2998)	GI50 (MDA-MB-435)	GI50 (DU-145)	GI50 (PC-3)	GI50 (Malme-3M)	GI50 (786-0)	GI50 (SW-620)
CC(C)C1OCC(CO)CO1 (stereo not given)	> 100 µM (inactive)	> 100 µM (inactive)	> 100	> 100 µM (inactive)	> 100 µM (inactive)	31.6 µM (inactive)	> 100 µM (inactive)	> 100 µM (inactive)	> 100 µM (inactive)	> 100 µM (inactive)	> 100 µM (inactive)	> 100 µM (inactive)	> 100 µM (inactive)	> 100 µM (inactive)	> 100 µM (inactive)	> 100 µM (inactive)	> 100 µM (inactive)	> 100 µM (inactive)	> 100 µM (inactive)	> 100 µM (inactive)
Cc1c(-c2ccccc2)c(C#N)c2nnn(-c3ccccc3)c(=O)n12	44.9 µM (inactive)	> 100 µM (inactive)	36	43.7 µM (inactive)	81.7 µM (inactive)	> 100 µM (inactive)	97.9 µM (inactive)	33.8 µM (inactive)	> 100 µM (inactive)	> 100 µM (inactive)	30.9 µM (inactive)	64.6 µM (inactive)	67.1 µM (inactive)	99.8 µM (inactive)	> 100 µM (inactive)	> 100 µM (inactive)	78.9 µM (inactive)	97.9 µM (inactive)	76.4 µM (inactive)	> 100 µM (inactive)
Cc1ccc(-c2cc(-c3cc(-c4ccc(C)cc4C)[nH]n3)[nH]n2)c(C)c1	13.9 µM (inactive)	19.8 µM (inactive)	15.4	13.1 µM (inactive)	14.4 µM (inactive)	21.9 µM (inactive)	13.9 µM (inactive)	10.2 µM (inactive)	14.9 µM (inactive)	18.8 µM (inactive)	16.4 µM (inactive)	7.93 µM (inactive)	15.8 µM (inactive)	13.2 µM (inactive)	14.7 µM (inactive)	16.3 µM (inactive)	15.1 µM (inactive)	11.1 µM (inactive)	13 µM (inactive)	11.8 µM (inactive)
CN(C)Cc1cc(/N=N/c2ccccc2)ccc1O	29.6 µM (inactive)	98.9 µM (inactive)	43.1	> 100 µM (inactive)	3.94 µM (inactive)	30.8 µM (inactive)	92.9 µM (inactive)	59.2 µM (inactive)	44 µM (inactive)	62.4 µM (inactive)	15.1 µM (inactive)	40.5 µM (inactive)	38.9 µM (inactive)	34.1 µM (inactive)	34.8 µM (inactive)	22.7 µM (inactive)	75.7 µM (inactive)	47.3 µM (inactive)	65.5 µM (inactive)	57.7 µM (inactive)
OCCc1ccsc1-c1sc(-c2cc(CCO)c(-c3sc(-c4cc(CCO)c(-c5sccc5CCO)s4)cc3CCO)s2)cc1CCO	0.807 µM (active)	0.853 µM (active)	1.03	1.29 µM (inactive)	0.454 µM (active)	0.634 µM (active)	0.656 µM (active)	0.684 µM (active)	1.24 µM (inactive)	1.48 µM (inactive)	1.13 µM (inactive)	0.841 µM (active)	1.82 µM (inactive)	1.47 µM (inactive)	1.32 µM (inactive)	1.34 µM (inactive)	1.28 µM (inactive)	1.14 µM (inactive)	0.776 µM (active)	1.31 µM (inactive)
COc1ccc(/N=N/N2CCCC2)cc1	12.9 µM (inactive)	61.7 µM (inactive)	22.6	> 100 µM (inactive)	26.1 µM (inactive)	23.2 µM (inactive)	> 100 µM (inactive)	48.3 µM (inactive)	16.9 µM (inactive)	16.2 µM (inactive)	30.4 µM (inactive)	> 100 µM (inactive)	44.8 µM (inactive)	45.6 µM (inactive)	70.6 µM (inactive)	> 100 µM (inactive)	36.5 µM (inactive)	17.6 µM (inactive)	15.6 µM (inactive)	26.8 µM (inactive)
Nc1ccc2nc3n(c2c1)C(c1c(F)cccc1F)SC3 (stereo not given)	> 100 µM (inactive)	> 100 µM (inactive)	> 100	98.9 µM (inactive)	> 100 µM (inactive)	> 100 µM (inactive)	> 100 µM (inactive)	> 100 µM (inactive)	> 100 µM (inactive)	> 100 µM (inactive)	41 µM (inactive)	> 100 µM (inactive)	> 100 µM (inactive)	> 100 µM (inactive)	> 100 µM (inactive)	> 100 µM (inactive)	> 100 µM (inactive)	> 100 µM (inactive)	> 100 µM (inactive)	> 100 µM (inactive)
Cc1ccc(S(=O)(=O)N2CCN(S(=O)(=O)c3ccc(C)cc3)CCN(S(=O)(=O)c3ccc(C)cc3)Cc3cc(C#N)c(C#N)cc3CN(S(=O)(=O)c3ccc(C)cc3)CC2)cc1	> 100 µM (inactive)	> 100 µM (inactive)	> 100	> 100 µM (inactive)	> 100 µM (inactive)	> 100 µM (inactive)	> 100 µM (inactive)	> 100 µM (inactive)	95.7 µM (inactive)	> 100 µM (inactive)	> 100 µM (inactive)	> 100 µM (inactive)	25.8 µM (inactive)	> 100 µM (inactive)	> 100 µM (inactive)	> 100 µM (inactive)	39.4 µM (inactive)	52.4 µM (inactive)	> 100 µM (inactive)	> 100 µM (inactive)
